Laboratory results taken from patent publication US8653264B2, “Crystal of erlotinib base and the preparation method thereof” (Zhejiang Huahai Pharmaceutical Co., Ltd., priority 2010, dated 2014).

Assays:
[1] = hygroscopicity experiment; format: physicochemical; details: crystal form IV of erlotinib base; conditions not given
stability experiment = format: physicochemical; details: crystal form IV of erlotinib base; conditions not given

C#Cc1cccc(Nc2ncnc3cc(OCCOC)c(OCCOC)cc23)c1 [Form IV, N-(3-ethynylphenyl)-6,7-bis(2-methoxyethoxy)quinazolin-4-amine]
change in the hygroscopicity experiment [1]: did not significantly change
change in the stability experiment (stability experiment): did not significantly change
